# Test results from ChEMBL document CHEMBL1157539, “Thousands of chemical starting points for antimalarial lead identification” (Nature, 2010).
# System: Plasmodium falciparum
# Experiment: GSK_TCMDC: Inhibition of Plasmodium falciparum 3D7 in whole erythrocytes, using parasite LDH activity as an index of growth.
# Format: functional, organism-based
# Conditions: not given
row,SMILES,XC50
1,Cc1c(C)c2c(c(C)c1O)CC[C@](C)(C(=O)NC1CCC(CN3CCC(c4c[nH]c5ccccc45)CC3)CC1)O2 (some centres not stated),1120 nM

# Same assay, conditions: Plasmodium falciparum, 3D7
row,SMILES,XC50
1,Cc1cc(N[C@@H](CC(C)C)C(=O)Nc2ccccc2)nc(Nc2ccccc2)n1,728 nM
2,O=C(Cc1c[nH]cn1)Nc1cccc(-c2ccc(-c3nc4ccccc4[nH]3)cc2)c1,761 nM
3,O=C(/C=C/c1ccc(Cl)cc1)NCCCCCN1CCCC(C(=O)Nc2ccc(Cl)c(Cl)c2)C1 (configuration not stated),833 nM
4,COCC(=O)N(Cc1ccccc1-c1cccc(CNCc2ccc3c(c2)OCO3)c1)C1CCN(Cc2ccccc2)CC1,842 nM
5,Cc1ccc2c(=NN=Cc3ccc(N(C)C)cc3)cc(C)[nH]c2c1,881 nM
6,COc1ccc(-c2cccc(NC(=O)c3cccc(C#N)c3)c2)cc1CN1CCCN(C)CC1,190 nM
7,CCCc1cc(Cc2cnc(N)nc2N)cc(CCC)c1OCCCCC(=O)OCC,54.1 nM
8,CCCn1c(Sc2ccc(C#N)c([N+](=O)[O-])c2)nnc1-c1ccc(OC)cc1,865 nM
9,Cc1[nH]c(C)c(-c2ccc(OCc3cc(C(F)(F)F)cc(C(F)(F)F)c3)nc2)c(=O)c1Cl,108 nM
10,COc1ccc2nccc([C@@H](O)CN3CCC(NC(=O)c4cc5ccccc5[nH]4)CC3)c2c1,969 nM
11,Nc1cccc(CNCc2cccc(-c3cccc(-c4nc5cc(C(F)(F)F)ccc5[nH]4)c3)c2)c1,510 nM
12,c1ccc(CNCCn2c(-c3ccc4c(c3)CCO4)nc3c(N4CCCC4)cccc32)cc1,1130 nM
13,COc1ccc(CC(=O)NC(CCCN2CCC3(CC2)OCc2ccccc23)c2ccc(Cl)c(Cl)c2)cc1 (configuration not stated),1130 nM
14,O=C(Nc1cc(C(F)(F)F)ccc1-n1cncn1)C1(c2ccccc2)CC1,60.1 nM
15,Cc1c(C)c2c(c(C)c1O)CC[C@](C)(C(=O)NC1CCC(CN3CCC(c4c[nH]c5ccccc45)CC3)CC1)O2 (some centres not stated),881 nM
16,CCCc1cc(NCc2ccncc2)nc(Nc2ccc(F)cc2)n1,1120 nM
17,O=C(c1cc2c(s1)-c1cccc(Cl)c1SC2)N1CCN(c2ccncc2)CC1,1010 nM
18,Cc1cc(N(C)C)nc(Nc2ccc(NC(=O)c3c(F)cccc3Cl)cc2)n1,1090 nM
19,C#Cc1cccc(NC(=O)[C@H](CC2CCCCC2)Nc2ccc(C#N)c3ccccc23)c1,588 nM
20,N#Cc1ccc2[nH]cc(CN3CCC4(CC3)CN(CCNCc3ccccc3)C(=O)CO4)c2c1,758 nM
21,COc1cc(F)c2ncc(Cl)c([C@@H](O)CN3CCC(NCc4ccc5c(n4)NC(=O)CO5)CC3)c2c1,124 nM
22,c1ccc(CNc2nc(NCCN3CCCCC3)nc3ccccc23)cc1,1020 nM
23,Cc1cc(N(C)C)nc(Nc2ccc(NC(=O)C3CCCCC3)cc2)n1,1110 nM
24,O=C(Cc1c[nH]cn1)Nc1cccc(-c2ccc(-c3nc4cc(F)ccc4[nH]3)cc2)c1,806 nM

row,SMILES,XC50
1,CCNC(C)(C)CN(Cc1ccc(-c2ccc(C(F)(F)F)cc2)cc1)C(=O)Cn1c(SCc2ccc(F)cc2)nc(=O)c2c1CCC2,991 nM
2,O=C(Nc1nccs1)c1cn(-c2ccccc2)nc1-c1ccc(Cl)s1,970 nM
3,O=C(Nc1ccc(Oc2ccccc2)cc1)NC1CCC(CN2CCC(c3c[nH]c4ccccc34)CC2)CC1 (configuration not stated),573 nM
4,CCN1CCC(N(Cc2ccc(-c3ccc(C(F)(F)F)cc3)cc2)C(=O)Cn2c(CCc3cccc(F)c3F)cc(=O)c3ccccc32)C1 (configuration not stated),1010 nM
5,OCC1CCN(Cc2ccc(-c3ccc(-c4nc5cc(C(F)(F)F)ccc5[nH]4)s3)cc2)CC1,477 nM
6,Cc1ccc(-c2cc(C(=O)Nc3ccc(S(=O)(=O)N4CCCCC4C)cc3)n[nH]2)c(O)c1 (configuration not stated),1080 nM
7,Clc1ccc(-c2ccc(CNCCCN3CCCC3)cc2)cc1,1060 nM
8,CN(C)CCNCc1ccc(-c2ccc3c(Nc4ccc(Cl)cc4F)ccnc3c2)o1,208 nM
9,O=C(CCCCCc1ccccc1)NC1CCC(CN2CCC(c3c[nH]c4ccccc34)CC2)CC1 (configuration not stated),1140 nM
10,Cc1ccc(OC2CCN(c3ccc(C(=O)NC4CC4)cn3)CC2)cc1,1300 nM
11,CCc1nc2c(cnn2CC)c(NC2CCOCC2)c1CNC(=O)N1CCOCC1,892 nM
12,Cc1c(Cc2ccccc2)c(=O)oc2c(C)c3c(cc12)CN(CC(C)c1ccccc1)CO3 (configuration not stated),454 nM
13,CN(C)Cc1ccc(-c2cccc(NC(=O)c3ccc(Cl)cc3)c2)cc1,900 nM
14,FC(F)(F)c1ccc(-c2ccc(CNC3CCN(CCN4CCOCC4)CC3)cc2)cc1,756 nM
15,Cc1cccc(C(=O)Nc2ccnc(N3CCC(N(C)Cc4ccc(C#N)cc4)CC3)c2)c1,912 nM
16,OCCN1CCN(Cc2cccc(-c3cccc(-c4nc5cc(F)ccc5[nH]4)c3)c2)CC1,706 nM
17,O=C(Nc1cccc(C(F)(F)F)c1)c1cccc(S(=O)(=O)NCC2CCCN(CC3CCCCC3)C2)c1 (configuration not stated),880 nM
18,COc1cc(C)nc2ccc(NC(=O)c3cc(C(F)(F)F)cc(C(F)(F)F)c3)cc12,912 nM
19,CC(C)N1CCC(N(Cc2ccc(-c3ccc(C(F)(F)F)cc3)cc2)C(=O)Cn2c(SCc3cccc(F)c3F)cc(=O)c3c2CCC3)CC1,1160 nM
20,O=C(/C=C/c1ccsc1)N1CCC(CCN2CCC(c3c[nH]c4ccccc34)CC2)CC1,905 nM
21,CCn1cc(C=C2Oc3c(ccc(O)c3CN3CCCCC3C)C2=O)c2ccccc21 (configuration not stated),1020 nM
22,CCn1c(=O)c(C(=O)Nc2cc(Cl)c(OC)cc2OC)nc2ccccc21,244 nM
23,Cc1ccc(CNC(=O)[C@H](Cc2ccccc2)Nc2ccnc(NCC3CCCCC3)n2)cc1,1190 nM
24,CN1CCCN(Cc2ccc(-c3cccc(NC(=O)c4cccc(F)c4)c3)cc2)CC1,980 nM

row,SMILES,XC50
1,CC(C)c1ccc(CN2CCC(NC(=O)c3ccc(-c4cccc(F)c4)s3)CC2)cc1,1330 nM
2,CS(=O)(=O)Nc1cccc(-c2cnc3[nH]cc(-c4cccc(CN)c4)c3c2)c1,1660 nM
3,COc1ccc(CNC(=N)Nc2nc(-c3ccc(OCCCn4ccnc4)cc3)cs2)cc1,393 nM
4,CCC1CN2CCc3cc(OC)c(OC)cc3C2CC1CC1NCCc2cc(OC)c(OC)cc21 (configuration not stated),145 nM
5,COc1ccc(CCNCc2cc3c(C(C)(C)C)nn(-c4ccc(Cl)cc4)c3[nH]c2=O)cc1OC,148 nM
6,O=C(NCC1CCN(Cc2ccc3c(c2)OCCO3)C1)c1cc(-c2ccccc2F)cs1 (configuration not stated),1020 nM
7,Cc1nc2ccccc2n1C1CC2CCC(C1)N2Cc1nccn1-c1ccccc1 (configuration not stated),366 nM
8,CCOC(=O)c1nc(-c2ccccc2)[nH]c1-n1nc(C)cc1C,686 nM
9,CCOC(=O)NC1=NC(C)(C)N(OCc2ccc(Cl)c(Cl)c2)C(NC(=O)OCC)=N1,278 nM
10,O=C(Nc1ccc(S(=O)(=O)N2CCCCC2)cc1)c1cc(-c2cc(Cl)ccc2O)n[nH]1,811 nM
11,COc1nc(Nc2cccc(C)c2)nc(OC)n1,1010 nM
12,COc1ccccc1C1CCN(C2CCC(NC(=O)c3ccc4[nH]c(-c5ccc(C)cc5)nc4c3)CC2)CC1 (configuration not stated),308 nM
13,Nc1nc(Nc2cccc(Cl)c2)ncc1C(=O)NCc1ccncc1,832 nM
14,O=C(Nc1ccccc1)Nc1cccc(-c2nn3c(OCC4CCCCN4)cccc3c2-c2ccncc2)c1 (configuration not stated),858 nM
15,OC1CCC(Nc2ccc3ncc(-c4ccc5ccccc5c4)n3n2)CC1 (configuration not stated),978 nM
16,Cc1nc(NCCCn2ccnc2)cc(-c2cncc(-c3ccc(OC(F)(F)F)cc3)c2)n1,616 nM
17,COC(=O)c1cccc(CNCc2ccc(-c3ccc(-c4nc5cccc(C)c5[nH]4)cc3)cc2)c1,283 nM
18,CN1CCC(c2csc3ccc(NC(=O)Nc4ccc(-c5ccncc5)c5ccccc45)cc23)CC1,1020 nM
19,CCCN(CCC)S(=O)(=O)c1ccc(C(=O)Nc2nc3ccc(-c4cc(=O)[nH]c(Nc5ccccc5Cl)n4)cc3[nH]2)cc1,594 nM
20,COc1cc(Nc2nc(N)n(C(=O)c3ccc4c(c3)OCO4)n2)cc(OC)c1OC,1130 nM
21,Cc1ccc(Nc2nc(NN=Cc3ccc(-c4ccc([N+](=O)[O-])cc4)o3)nc(N3CCOCC3)n2)cc1Cl,652 nM
22,COc1ccc(CNCc2cccc(-c3cccc(-c4nc5cc(F)ccc5[nH]4)c3)c2)cc1,300 nM
23,CC1(C)NC(N)=NC(=N)N1OCCCCCCOc1ccc(Cl)c2ccccc12,3.2 nM
24,O=[N+]([O-])c1ccc(Nc2nc(N/N=C/c3cc(Cl)cc(Cl)c3O)nc(Nc3ccccc3)n2)cc1,671 nM

row,SMILES,XC50
1,Oc1ccc(-c2cncc(NCc3ccc(F)c(F)c3)c2)cc1,768 nM
2,CCNc1cc(C(=O)N[C@@H](Cc2ccccc2)[C@H](O)CNC(C)(C)CSCC(C)C)cc(N2CCCC2=O)c1,260 nM
3,Nc1c2ccccc2nc2ccc(-c3ccccc3)cc12,140 nM
4,CCCC(=O)c1cnc2c(I)cccc2c1Nc1ccccc1C,1160 nM
5,Cc1cc(CN2CCC(C(=O)Nc3ccc(-c4nc5ccccc5[nH]4)cc3)CC2)oc1C,1450 nM
6,Cc1cc(Cl)c(S(=O)(=O)N(C)c2ccccc2)cc1OCC(=O)NC1CCCCC1,296 nM
7,FC(F)(F)c1ccc2c(NCCNc3ccnc4cc(C(F)(F)F)ccc34)ccnc2c1,32.7 nM
8,CCCN1CCC=C(c2cccc(Nc3nccc(Nc4cc(OC)ccc4C)n3)c2)C1,1040 nM
9,O=C(Nc1cccc(-c2nc3ccccc3[nH]2)c1)c1cccc(NC(=O)c2ccco2)c1,360 nM
10,CCOC(=O)C(C(C)=O)C(c1ccccc1)C(C(C)=O)C(=O)OCC (configuration not stated),748 nM
11,CN1CCN(CCCN(Cc2cccc(-c3ccc(CNC4CCCC4)cc3)c2)C(=O)CCC2CCCC2)CC1,761 nM
12,CC1(C)N=C(N)N=C(N)N1OCc1ccc2ccccc2c1,3.2 nM
13,CC(C)(CNC(=O)C1CCN(CCOCc2ccccc2)CC1)c1nc(-c2ccc(Cl)c(O)c2)c(-c2ccncc2)[nH]1,620 nM
14,Oc1ccc(Cl)cc1CN1CCC(CCOC(c2ccccc2)c2ccc(Cl)cc2)CC1 (configuration not stated),390 nM
15,CC(Cc1ccc(OCCCCOc2ccccc2)cc1)NCCC1CCCN1C (configuration not stated),39.7 nM
16,CC(c1cccc(Nc2nccc(-c3c(-c4cccc(NC(=O)c5c(F)cccc5F)c4)nn4ccccc34)n2)c1)S(C)(=O)=O (configuration not stated),57.5 nM
17,Cc1noc(C)c1-c1cccc(CNCc2ccc(-c3ccc(-c4nc5cc(C(F)(F)F)ccc5[nH]4)s3)cc2)c1,181 nM
18,O=S(=O)(NCCN1CCCC1)c1ccc(-c2ccc(CNC3Cc4ccccc4C3)cc2)s1,590 nM
19,COc1ccc2nc(Nc3nc4cnccc4[nH]3)sc2c1,1130 nM
20,Cc1cccc2nc(-c3cccc(-c4ccc(NC(=O)COc5ccccc5C(N)=O)cc4)c3)[nH]c12,889 nM
21,CCNC(=O)c1ccc(-n2nc(C)cc2-c2ccccc2)cc1,1120 nM
22,Fc1ccc2[nH]c(-c3cccc(-c4ccc(CNCCc5ccncc5)cc4)c3)nc2c1,115 nM
23,Nc1ccc(-c2nc3cc(C4=N[C@H]5CCCC[C@H]5N4)ccc3o2)cc1[N+](=O)[O-],1120 nM
24,Cc1cc(NC(=O)c2ccc(-c3ccccc3)cc2)no1,1020 nM
